The target in one experiment is Ephrin type-A receptor 5 (Homo sapiens, UniProt P54756).
Experiment [1] has as its target DnaJ homolog subfamily A member 1 (Homo sapiens, UniProt P31689).
Experiment [2] addresses T1, Glycogen phosphorylase, liver form (Homo sapiens, UniProt P06737).
T1 sequence (P06737 whole entry): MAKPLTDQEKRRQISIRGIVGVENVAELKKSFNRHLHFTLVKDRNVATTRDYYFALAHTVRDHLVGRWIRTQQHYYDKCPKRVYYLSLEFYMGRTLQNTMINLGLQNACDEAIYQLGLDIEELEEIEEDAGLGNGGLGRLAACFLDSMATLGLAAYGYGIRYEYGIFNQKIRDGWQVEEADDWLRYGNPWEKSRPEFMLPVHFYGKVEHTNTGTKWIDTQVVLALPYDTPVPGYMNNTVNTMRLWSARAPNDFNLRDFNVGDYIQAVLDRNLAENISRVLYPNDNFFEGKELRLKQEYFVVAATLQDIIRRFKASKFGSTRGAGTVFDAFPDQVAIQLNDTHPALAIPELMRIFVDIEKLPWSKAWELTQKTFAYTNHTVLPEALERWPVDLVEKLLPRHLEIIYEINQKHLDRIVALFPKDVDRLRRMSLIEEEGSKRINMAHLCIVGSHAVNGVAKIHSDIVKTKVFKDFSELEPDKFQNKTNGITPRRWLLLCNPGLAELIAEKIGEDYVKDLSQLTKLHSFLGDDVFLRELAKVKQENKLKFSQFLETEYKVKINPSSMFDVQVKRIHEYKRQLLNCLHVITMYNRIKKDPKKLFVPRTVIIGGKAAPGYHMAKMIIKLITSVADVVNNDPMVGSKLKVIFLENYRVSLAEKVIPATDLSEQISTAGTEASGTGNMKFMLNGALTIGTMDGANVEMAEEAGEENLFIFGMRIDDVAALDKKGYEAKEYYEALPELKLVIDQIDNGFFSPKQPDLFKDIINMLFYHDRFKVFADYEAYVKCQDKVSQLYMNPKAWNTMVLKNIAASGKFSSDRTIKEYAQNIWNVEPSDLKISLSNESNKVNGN
Type of experiment: subcellular, K-562, COLO 205, SK-N-BE(2) and MV-4-11, Cell lysate. The note with it: read-out: Kd apparent.

Experiment [3] addresses Non-receptor tyrosine-protein kinase TYK2 (Homo sapiens, UniProt P29597).
The target in experiment [4] is Dual specificity testis-specific protein kinase 1 (Homo sapiens, UniProt Q15569).
For a further experiment, the target named is Deoxycytidine kinase (Homo sapiens, UniProt P27707).
Experiment [5] has as its target Receptor-interacting serine/threonine-protein kinase 2 (Homo sapiens, UniProt O43353).
Experiment [6] deals with Mitogen-activated protein kinase 14 (Homo sapiens, UniProt Q16539).
The target of experiment [7] is Bone morphogenetic protein receptor type-1B (Homo sapiens, UniProt O00238).
Experiment [8] addresses Platelet-derived growth factor receptor beta (Homo sapiens, UniProt P09619).
Experiment [9] has as its target Mitogen-activated protein kinase kinase kinase kinase 5 (Homo sapiens, UniProt Q9Y4K4).
In experiment [10] the target is T2, Dual specificity mitogen-activated protein kinase kinase 5 (Homo sapiens, UniProt Q13163).
T2 sequence (Q13163 whole entry): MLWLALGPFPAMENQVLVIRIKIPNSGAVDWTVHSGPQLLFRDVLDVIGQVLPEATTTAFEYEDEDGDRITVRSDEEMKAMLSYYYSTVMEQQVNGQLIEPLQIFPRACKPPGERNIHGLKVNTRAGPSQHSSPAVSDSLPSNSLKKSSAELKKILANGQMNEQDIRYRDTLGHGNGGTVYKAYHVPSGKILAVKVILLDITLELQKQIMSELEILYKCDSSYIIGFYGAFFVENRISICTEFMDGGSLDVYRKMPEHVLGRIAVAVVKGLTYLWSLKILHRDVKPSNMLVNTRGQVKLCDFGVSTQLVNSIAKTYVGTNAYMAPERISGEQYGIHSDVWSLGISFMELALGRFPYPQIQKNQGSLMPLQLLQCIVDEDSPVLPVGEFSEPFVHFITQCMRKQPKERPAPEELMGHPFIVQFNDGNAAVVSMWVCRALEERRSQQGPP

The target in experiment [11] is Tyrosine-protein kinase Lyn (Homo sapiens, UniProt P07948).
Experiment [12] deals with Serine/threonine-protein kinase SIK2 (Homo sapiens, UniProt Q9H0K1).
The target of experiment [13] is T3, Ras-related protein Rab-10 (Homo sapiens, UniProt P61026).
T3 sequence (P61026 whole entry): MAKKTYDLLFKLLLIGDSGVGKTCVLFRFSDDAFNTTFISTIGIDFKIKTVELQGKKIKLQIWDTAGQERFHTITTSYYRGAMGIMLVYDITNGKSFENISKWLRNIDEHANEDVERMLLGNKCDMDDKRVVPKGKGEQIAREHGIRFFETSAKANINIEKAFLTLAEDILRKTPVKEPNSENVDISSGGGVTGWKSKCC

Experiment [14] has as its target cAMP-dependent protein kinase catalytic subunit gamma (Homo sapiens, UniProt P22612).
For experiment [15], the target named is Cyclin-dependent kinase 2 (Homo sapiens, UniProt P24941).

Structures are written as SMILES. Structures can show the parent of a compound that is named as a salt. Activity calls are given as the source filed them. For most assays here, no stated cut-off is given here; in the data, actives have a measured Kd and inactives only a lower limit. Bounds are passed on as bounds.

Chain of Serine/threonine-protein kinase SIK2 (Q9H0K1 whole entry): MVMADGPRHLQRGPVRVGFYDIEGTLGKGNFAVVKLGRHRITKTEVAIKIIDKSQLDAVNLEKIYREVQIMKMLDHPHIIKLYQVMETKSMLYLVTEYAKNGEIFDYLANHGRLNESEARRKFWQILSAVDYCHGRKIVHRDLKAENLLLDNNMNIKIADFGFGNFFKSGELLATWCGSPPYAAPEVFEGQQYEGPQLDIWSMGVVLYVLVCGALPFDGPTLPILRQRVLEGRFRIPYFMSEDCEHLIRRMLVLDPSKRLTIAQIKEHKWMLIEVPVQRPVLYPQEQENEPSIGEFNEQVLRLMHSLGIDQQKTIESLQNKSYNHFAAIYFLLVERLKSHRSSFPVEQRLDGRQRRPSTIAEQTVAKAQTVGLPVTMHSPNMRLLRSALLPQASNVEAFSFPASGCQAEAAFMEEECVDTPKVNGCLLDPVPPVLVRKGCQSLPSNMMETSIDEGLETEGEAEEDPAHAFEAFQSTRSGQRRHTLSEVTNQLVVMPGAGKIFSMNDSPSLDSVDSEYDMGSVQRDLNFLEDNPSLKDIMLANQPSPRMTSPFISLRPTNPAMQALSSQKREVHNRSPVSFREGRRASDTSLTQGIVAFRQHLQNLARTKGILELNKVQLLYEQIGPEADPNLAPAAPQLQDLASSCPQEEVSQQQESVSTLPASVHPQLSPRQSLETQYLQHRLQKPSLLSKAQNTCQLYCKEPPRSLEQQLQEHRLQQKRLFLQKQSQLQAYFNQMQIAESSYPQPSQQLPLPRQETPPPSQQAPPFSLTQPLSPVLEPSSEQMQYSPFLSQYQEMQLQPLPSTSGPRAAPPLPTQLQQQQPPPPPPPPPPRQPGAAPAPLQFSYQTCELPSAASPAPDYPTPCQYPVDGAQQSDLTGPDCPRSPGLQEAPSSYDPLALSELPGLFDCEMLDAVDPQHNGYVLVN
Chain of Platelet-derived growth factor receptor beta (P09619 whole entry): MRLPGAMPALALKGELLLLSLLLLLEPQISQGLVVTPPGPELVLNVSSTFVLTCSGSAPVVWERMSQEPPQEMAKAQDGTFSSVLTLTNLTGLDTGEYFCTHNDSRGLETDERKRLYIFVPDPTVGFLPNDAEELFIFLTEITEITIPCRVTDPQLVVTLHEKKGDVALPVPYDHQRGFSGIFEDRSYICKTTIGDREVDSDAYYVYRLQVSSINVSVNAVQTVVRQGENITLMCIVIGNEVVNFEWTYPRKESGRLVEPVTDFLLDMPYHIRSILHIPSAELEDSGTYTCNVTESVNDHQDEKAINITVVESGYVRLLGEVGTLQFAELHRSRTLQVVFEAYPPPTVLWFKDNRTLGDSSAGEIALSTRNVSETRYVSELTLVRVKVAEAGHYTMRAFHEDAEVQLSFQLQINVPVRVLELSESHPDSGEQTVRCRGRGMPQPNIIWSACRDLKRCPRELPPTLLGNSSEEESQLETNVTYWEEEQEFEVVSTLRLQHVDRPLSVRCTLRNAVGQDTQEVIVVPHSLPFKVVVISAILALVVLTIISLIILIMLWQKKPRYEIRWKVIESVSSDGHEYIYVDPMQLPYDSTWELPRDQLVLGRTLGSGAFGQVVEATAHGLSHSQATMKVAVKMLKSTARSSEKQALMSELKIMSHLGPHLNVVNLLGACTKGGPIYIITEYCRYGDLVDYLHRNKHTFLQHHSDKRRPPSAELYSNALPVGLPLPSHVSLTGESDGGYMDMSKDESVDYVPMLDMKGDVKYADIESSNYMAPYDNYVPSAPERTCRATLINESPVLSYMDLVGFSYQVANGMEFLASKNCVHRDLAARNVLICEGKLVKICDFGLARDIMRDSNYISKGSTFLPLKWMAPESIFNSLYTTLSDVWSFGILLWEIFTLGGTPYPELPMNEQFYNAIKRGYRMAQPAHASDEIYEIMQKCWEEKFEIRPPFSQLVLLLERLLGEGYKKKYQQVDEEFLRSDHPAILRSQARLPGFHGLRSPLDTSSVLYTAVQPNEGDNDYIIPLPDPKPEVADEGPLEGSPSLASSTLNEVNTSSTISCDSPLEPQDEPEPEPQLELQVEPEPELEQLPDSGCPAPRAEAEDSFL
Chain of Receptor-interacting serine/threonine-protein kinase 2 (O43353 whole entry): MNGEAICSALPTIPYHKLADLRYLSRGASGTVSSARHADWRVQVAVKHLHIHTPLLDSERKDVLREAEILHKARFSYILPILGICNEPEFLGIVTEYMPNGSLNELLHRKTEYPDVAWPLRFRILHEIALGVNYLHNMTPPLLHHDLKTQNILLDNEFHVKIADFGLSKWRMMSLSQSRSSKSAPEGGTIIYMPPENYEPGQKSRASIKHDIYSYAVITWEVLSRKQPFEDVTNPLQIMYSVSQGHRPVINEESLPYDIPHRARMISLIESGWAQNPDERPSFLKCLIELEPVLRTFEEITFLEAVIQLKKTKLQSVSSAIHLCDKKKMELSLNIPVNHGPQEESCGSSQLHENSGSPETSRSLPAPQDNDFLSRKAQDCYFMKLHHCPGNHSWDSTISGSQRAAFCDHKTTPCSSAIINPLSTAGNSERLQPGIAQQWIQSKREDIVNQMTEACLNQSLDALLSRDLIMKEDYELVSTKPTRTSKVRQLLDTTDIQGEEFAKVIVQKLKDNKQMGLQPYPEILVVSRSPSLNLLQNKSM
Chain of Tyrosine-protein kinase Lyn (P07948 whole entry): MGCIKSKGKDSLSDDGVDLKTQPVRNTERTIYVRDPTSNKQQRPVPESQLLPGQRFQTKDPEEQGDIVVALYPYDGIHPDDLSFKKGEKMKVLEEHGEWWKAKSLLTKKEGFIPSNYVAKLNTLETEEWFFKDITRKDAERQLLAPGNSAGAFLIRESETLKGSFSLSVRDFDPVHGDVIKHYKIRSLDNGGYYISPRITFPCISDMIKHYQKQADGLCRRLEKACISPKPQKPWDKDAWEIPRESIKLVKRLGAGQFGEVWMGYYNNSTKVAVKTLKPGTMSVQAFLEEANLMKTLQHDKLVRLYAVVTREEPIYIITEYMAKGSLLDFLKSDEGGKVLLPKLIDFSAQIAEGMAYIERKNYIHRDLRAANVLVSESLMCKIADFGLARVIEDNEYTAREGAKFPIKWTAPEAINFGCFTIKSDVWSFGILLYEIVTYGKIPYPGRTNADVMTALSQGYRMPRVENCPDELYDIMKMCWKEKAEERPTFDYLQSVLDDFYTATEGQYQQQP
Chain of Deoxycytidine kinase (P27707 whole entry): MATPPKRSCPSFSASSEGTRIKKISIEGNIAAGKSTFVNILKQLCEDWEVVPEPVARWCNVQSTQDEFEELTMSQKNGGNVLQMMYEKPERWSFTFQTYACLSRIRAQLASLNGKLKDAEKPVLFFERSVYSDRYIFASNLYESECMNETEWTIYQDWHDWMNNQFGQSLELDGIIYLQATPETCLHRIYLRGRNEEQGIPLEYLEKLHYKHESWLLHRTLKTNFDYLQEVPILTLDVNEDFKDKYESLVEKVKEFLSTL
Chain of Bone morphogenetic protein receptor type-1B (O00238 whole entry): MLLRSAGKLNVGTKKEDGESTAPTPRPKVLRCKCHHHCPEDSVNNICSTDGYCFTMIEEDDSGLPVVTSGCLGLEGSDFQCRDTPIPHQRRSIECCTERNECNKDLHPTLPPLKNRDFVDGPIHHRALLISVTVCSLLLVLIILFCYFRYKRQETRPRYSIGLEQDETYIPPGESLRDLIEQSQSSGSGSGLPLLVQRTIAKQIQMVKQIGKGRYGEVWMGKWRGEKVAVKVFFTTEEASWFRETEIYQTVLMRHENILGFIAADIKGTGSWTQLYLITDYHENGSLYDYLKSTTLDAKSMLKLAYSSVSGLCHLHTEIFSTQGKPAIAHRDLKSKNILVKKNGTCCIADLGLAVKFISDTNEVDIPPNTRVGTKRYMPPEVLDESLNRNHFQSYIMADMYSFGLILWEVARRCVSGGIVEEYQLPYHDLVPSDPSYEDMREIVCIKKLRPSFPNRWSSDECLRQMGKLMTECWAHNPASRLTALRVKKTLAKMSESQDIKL
Chain of cAMP-dependent protein kinase catalytic subunit gamma (P22612 whole entry): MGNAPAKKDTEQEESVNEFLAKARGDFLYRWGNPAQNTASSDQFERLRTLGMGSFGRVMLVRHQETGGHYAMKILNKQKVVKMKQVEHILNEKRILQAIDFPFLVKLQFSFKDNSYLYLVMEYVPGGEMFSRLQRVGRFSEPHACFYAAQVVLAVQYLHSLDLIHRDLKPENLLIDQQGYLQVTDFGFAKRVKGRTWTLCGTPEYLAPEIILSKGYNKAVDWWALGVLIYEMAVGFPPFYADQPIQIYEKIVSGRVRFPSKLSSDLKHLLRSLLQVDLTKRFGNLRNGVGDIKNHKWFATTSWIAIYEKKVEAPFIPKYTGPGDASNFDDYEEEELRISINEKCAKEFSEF
Chain of Dual specificity testis-specific protein kinase 1 (Q15569 whole entry): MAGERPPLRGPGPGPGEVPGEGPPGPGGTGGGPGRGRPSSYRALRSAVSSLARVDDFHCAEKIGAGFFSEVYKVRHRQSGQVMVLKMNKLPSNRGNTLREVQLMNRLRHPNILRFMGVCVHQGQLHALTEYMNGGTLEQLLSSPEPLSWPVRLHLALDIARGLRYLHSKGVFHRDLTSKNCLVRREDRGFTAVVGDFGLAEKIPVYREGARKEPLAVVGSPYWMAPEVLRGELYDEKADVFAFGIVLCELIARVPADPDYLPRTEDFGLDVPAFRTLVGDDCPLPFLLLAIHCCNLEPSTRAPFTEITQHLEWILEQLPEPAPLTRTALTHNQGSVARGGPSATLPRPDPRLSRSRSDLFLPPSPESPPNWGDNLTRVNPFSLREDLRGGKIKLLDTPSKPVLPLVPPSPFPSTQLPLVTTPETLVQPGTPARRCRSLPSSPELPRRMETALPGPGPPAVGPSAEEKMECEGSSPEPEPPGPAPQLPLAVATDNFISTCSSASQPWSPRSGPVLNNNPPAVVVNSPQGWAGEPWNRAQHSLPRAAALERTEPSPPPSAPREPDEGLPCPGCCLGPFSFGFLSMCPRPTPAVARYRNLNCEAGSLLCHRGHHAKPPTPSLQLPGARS

For `CCS(=O)(=O)N1CCN(c2ccc(Nc3ncc(C(N)=O)c(NC4CC4)n3)cc2)CC1` [Cerdulatinib Hydrochloride], the Kd was > 30 µM (inactive) at Ephrin type-A receptor 5; > 30 µM (inactive) in experiment [1]; > 30 µM (inactive) in [2]; 0.032 µM (active) in experiment [3]; > 30 µM (inactive) in [4]; > 30 µM (inactive) on Deoxycytidine kinase. In addition, the Kd in experiment [5] is > 30 µM (inactive); in experiment [6], > 30 µM (inactive); in experiment [7], > 30 µM (inactive); in experiment [8], 0.203 µM (active); in experiment [9], 19.2 µM (active); in [10], 0.656 µM (active). Also, the Kd in [11] was > 30 µM (inactive); in [12], 0.128 µM (active); in experiment [13] it was > 30 µM (inactive); in experiment [14] it was > 30 µM (inactive).
Turning to `CC(C)(C)c1nc(-c2cccc(NS(=O)(=O)c3c(F)cccc3F)c2F)c(-c2ccnc(N)n2)s1` [DABRAFENIB], the Kd in experiment [1] was > 30 µM (inactive); in experiment [2], > 30 µM (inactive); in experiment [4], > 30 µM (inactive); in experiment [15], 0.019 µM (active); at Deoxycytidine kinase it was > 30 µM (inactive); in experiment [5], 0.106 µM (active). Further, the Kd in experiment [7] is > 30 µM (inactive); in [9], > 30 µM (inactive); in experiment [10] it was 2.29 µM (active); in [12], 0.649 µM (active); in experiment [13] it was > 30 µM (inactive); in experiment [14] it was > 30 µM (inactive).
Consider `O=C(Nc1nc2cccc(-c3ccc(CN4CCS(=O)(=O)CC4)cc3)n2n1)C1CC1` [FILGOTINIB], for which the Kd (on Ephrin type-A receptor 5; in experiment [1]; in [2]; in [4]; in experiment [15]; on Deoxycytidine kinase) was > 30 µM (inactive) throughout. Besides, the Kd in experiment [5], in [6], in [7], in experiment [8], in experiment [9] and in [10] was > 30 µM (inactive) throughout. The Kd in experiment [11], in experiment [12], in experiment [13] and in experiment [14] was > 30 µM (inactive) in each case.
Take `CCn1cc(-c2ccnc3[nH]c(-c4cccc(CN(C)C)c4)cc23)c(-c2ccc(NC(=O)N(C)C)cc2)n1` [GSK-1070916]: the Kd on Ephrin type-A receptor 5 is > 30 µM (inactive); in experiment [1] it was > 30 µM (inactive); in experiment [2], > 30 µM (inactive); in experiment [15], > 30 µM (inactive); on Deoxycytidine kinase it was 2.16 µM (active); in experiment [5], 0.611 µM (active). Besides, the Kd is 8.5 µM (active) in [6]; > 30 µM (inactive) in experiment [8]; > 30 µM (inactive) in experiment [9]; 1.93 µM (active) in experiment [10]; > 30 µM (inactive) in experiment [11]; 0.685 µM (active) in experiment [12]. Also, in [13], the Kd is > 30 µM (inactive).
For `CNC(=O)c1cccc2cc(Oc3ccnc4cc(OCC5(N)CC5)c(OC)cc34)ccc12` [LUCITANIB], the Kd (on Ephrin type-A receptor 5; in experiment [1]; in experiment [2]; in experiment [3]; in experiment [4]; at Deoxycytidine kinase) was > 30 µM (inactive) each time. Moreover, the Kd is 0.199 µM (active) in experiment [5]; > 30 µM (inactive) in experiment [6]; > 30 µM (inactive) in experiment [7]; 0.278 µM in experiment [8]; > 30 µM (inactive) in experiment [9]; > 30 µM (inactive) in experiment [10]. Besides, the Kd in experiment [11] is 2.76 µM (active); in [12], > 30 µM (inactive); in experiment [13] it was > 30 µM (inactive); in experiment [14] it was > 30 µM (inactive).
In the case of `Cc1nc(Nc2n[nH]c3c2CN(C(=O)N[C@H](CN(C)C)c2ccccc2)C3(C)C)c2sccc2n1` [PF-03758309], the Kd (at Ephrin type-A receptor 5; in experiment [1]; in [2]; in experiment [3]; in experiment [4]; on Deoxycytidine kinase) was > 30 µM (inactive) throughout. The Kd is > 30 µM (inactive) in experiment [5]; > 30 µM (inactive) in [6]; > 30 µM (inactive) in [7]; 29.7 µM in experiment [8]; > 30 µM (inactive) in experiment [9]; > 30 µM (inactive) in [10]. Moreover, the Kd is > 30 µM (inactive) in [11], 1.27 µM (active) in experiment [12], > 30 µM (inactive) in [13] and 0.066 µM (active) in experiment [14].
Take `CCS(=O)(=O)c1cccc(-c2cc(C(=O)NC3CCN(C)CC3)c(C)c3[nH]c4ncc(C)cc4c23)c1` [TAK-901]: the Kd was 0.508 µM (active) on Ephrin type-A receptor 5; > 30 µM (inactive) in [1]; > 30 µM (inactive) in experiment [2]; > 30 µM (inactive) in experiment [3]; > 30 µM (inactive) in [4]; > 30 µM (inactive) on Deoxycytidine kinase. For the same compound, the Kd in experiment [5] was > 30 µM (inactive); in [6] it was > 30 µM (inactive); in [7] it was > 30 µM (inactive); in experiment [8] it was 4.59 µM (active); in experiment [9] it was 5.36 µM (active); in experiment [10], 6.8 µM (active). In addition, the Kd in experiment [11] was 0.357 µM (active); in experiment [12] it was 0.115 µM (active); in experiment [13], > 30 µM (inactive); in [14], > 30 µM (inactive).
As to `CN1C/C=C/CCOc2cccc(c2)-c2ccnc(n2)Nc2cccc(c2)C1` [ZOTIRACICLIB], the Kd (on Ephrin type-A receptor 5; in experiment [1]; in [2]; in [3]; in experiment [4]; on Deoxycytidine kinase) was > 30 µM (inactive) throughout. The Kd is > 30 µM (inactive) in experiment [5]; > 30 µM (inactive) in experiment [6]; > 30 µM (inactive) in [7]; > 30 µM (inactive) in experiment [8]; 5.09 µM (active) in [9]; > 30 µM (inactive) in experiment [10]. For the same compound, the Kd in experiment [11], in experiment [12], in experiment [13] and in experiment [14] was > 30 µM (inactive) in each case.

The record behind these values is ChEMBL document CHEMBL3991601, “The target landscape of clinical kinase drugs” (Science, 2017).
